From US9732063B2, “Kinase inhibitors” (RESPIVERT LIMITED, priority 2012, dated 2017)
pIC50: −log10 of the molar value. Read-outs that look alike come from different tables or passages of the source.

Key:
PBMCs [1] = assay: LPS-induced TNFα/IL-8 release in PBMC cells; format: cell-based; conditions: Homo sapiens, read-out: IC50 Values for Inhibition of Cytokine Release PBMCs IL-8
Outline: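 TNFα and IL-8 in supernatants were measured by sandwich ELISA after 24 h of 1 ng/mL LPS (E. coli O111:B4) at 37 °C, 5% CO2. Test compounds were added 2 h before LPS to PBMCs from healthy subjects, separated on a density gradient.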

HT29 cells = assay: IL-1β-induced IL-8 release in HT29 cells; format: cell-based; conditions: Homo sapiens, HT-29, read-out: IC50 Values for Inhibition of Cytokine Release HT29 cells IL-8
Method: HT29 cells, a human colon adenocarcinoma cell line, are plated in a 96 well plate (24 hrs) and pre-treated with compounds at the desired concentration for 2 hours before addition of 5 ng/mL of IL-1β (Abcam) for 24 hours. Supernatants are harvested for IL-8 quantification by Sandwich ELISA (Duo-set, R&D System). The IC50 is determined from the dose response curve.

d-U937 cells = assay: LPS-induced TNFα/IL-8 release in d-U937 cells; format: cell-based; conditions: Homo sapiens
Method: Cells are pre-incubated with final concentrations of test compound for 2 hr and are then stimulated with 0.1 μg/mL of LPS (from E. coli: O111:B4, Sigma) for 4 hr. The supernatant is collected for determination of TNFα and IL-8 concentrations by sandwich ELISA (Duo-set, R&D systems). […] The relative 50% effective concentration (REC50) is determined from the resultant concentration-response curve. The inhibition of IL-8 production is calculated at each concentration of test compound by comparison with vehicle control.

PBMCs [2] = assay: IL-2 and IFN gamma release in CD3/CD28 stimulated PBMC cells; format: cell-based; conditions: Homo sapiens
Outline: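 They were cultured with compound for 3 days. IL-2 and IFN-γ in supernatants were quantified by sandwich ELISA, and IC50 was derived from the dose-response curve.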

Syk = Syk (Homo sapiens (Human), UniProt P43405); assay: Syk enzyme inhibition (Z-LYTE FRET); format: biochemical
Method: (§1) The enzyme inhibitory activities of compounds disclosed herein are determined by FRET using synthetic peptides labelled with both donor and acceptor fluorophores (Z-LYTE, Invitrogen Ltd., Paisley, UK).
(§2) The relevant enzyme (3000 ng/mL or 2000 ng/mL respectively, 2.5 μL) is incubated with the test compound (either 4 μg/mL, 0.4 μg/mL, 0.04 μg/mL, or 0.004 μg/mL, 2.5 μL each) for 2 hr at RT. The FRET peptides (8 μM, 2.5 μL), and appropriate ATP solutions (2.5 μL, 800 μM for c-Src, and 60 μM ATP for Syk) are then added to the enzymes/compound mixtures and incubated for 1 hr. Development reagent (protease, 5 μL) is added for 1 hr prior to detection in a fluorescence microplate reader (Varioskan® Flash, ThermoFisher Scientific).
(§3) In all cases, the site-specific protease cleaves non-phosphorylated peptide only and eliminates the FRET signal. Phosphorylation levels of each reaction are calculated using the ratio of coumarin emission (donor) over fluorescein emission (acceptor), for which high ratios indicate high phosphorylation and low ratios indicate low phosphorylation levels.

p38 MAPKα = p38 MAPKα (Homo sapiens (Human), UniProt Q16539); assay: p38 MAPKα enzyme inhibition (Z-LYTE FRET, Method 2); format: biochemical
Sequence of p38 MAPKα (Q16539 whole entry): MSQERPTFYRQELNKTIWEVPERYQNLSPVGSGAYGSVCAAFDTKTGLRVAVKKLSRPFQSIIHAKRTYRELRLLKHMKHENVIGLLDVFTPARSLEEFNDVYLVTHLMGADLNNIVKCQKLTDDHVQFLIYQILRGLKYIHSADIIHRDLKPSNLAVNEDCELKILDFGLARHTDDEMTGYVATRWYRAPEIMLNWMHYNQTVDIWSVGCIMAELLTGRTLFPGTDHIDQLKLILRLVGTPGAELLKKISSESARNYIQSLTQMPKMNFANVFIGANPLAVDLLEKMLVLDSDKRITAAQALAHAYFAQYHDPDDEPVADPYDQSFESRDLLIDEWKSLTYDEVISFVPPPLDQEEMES
Method: as §1
The inhibitory activities of test compounds against the p38 MAPKα isoform (MAPK14: Invitrogen), are evaluated indirectly by determining the level of activation/phosphorylation of the down-stream molecule, MAPKAP-K2. The p38 MAPKα protein (80 ng/mL, 2.5 μL) is mixed with the test compound (2.5 μL of either 4 μg/mL, 0.4 μg/mL, 0.04 μg/mL or 0.004 μg/mL) for 2 hr at RT. […] The mixture is incubated for 1 hr at RT. Development reagent (protease, 5 μL) is added for 1 hr prior to detection in a fluorescence microplate reader (Varioskan® Flash, ThermoFisher Scientific).
as §3

c-Src = c-Src (Homo sapiens (Human), UniProt P12931); assay: c-Src enzyme inhibition (Z-LYTE FRET); format: biochemical
Sequence of c-Src (P12931 whole entry, looked up): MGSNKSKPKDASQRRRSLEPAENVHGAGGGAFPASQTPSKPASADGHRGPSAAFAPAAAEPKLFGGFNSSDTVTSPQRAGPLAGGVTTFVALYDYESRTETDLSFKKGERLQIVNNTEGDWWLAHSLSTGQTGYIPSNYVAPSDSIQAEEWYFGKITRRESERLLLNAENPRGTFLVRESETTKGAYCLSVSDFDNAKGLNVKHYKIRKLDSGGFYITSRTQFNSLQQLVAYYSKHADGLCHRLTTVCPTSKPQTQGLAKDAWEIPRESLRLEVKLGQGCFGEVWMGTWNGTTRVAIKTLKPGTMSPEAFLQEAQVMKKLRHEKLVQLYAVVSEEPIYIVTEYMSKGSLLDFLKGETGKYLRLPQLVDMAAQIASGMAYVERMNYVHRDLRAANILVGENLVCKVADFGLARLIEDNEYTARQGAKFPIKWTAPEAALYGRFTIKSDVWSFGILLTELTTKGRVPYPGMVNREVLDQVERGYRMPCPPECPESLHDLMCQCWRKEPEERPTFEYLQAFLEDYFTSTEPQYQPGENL
Method: as §1, §2, §3

GSK3α = GSK3α (Homo sapiens (Human), UniProt P49840); assay: GSK 3α enzyme inhibition (Z-LYTE FRET, Method 2); format: biochemical
Sequence of GSK3α (P49840 whole entry): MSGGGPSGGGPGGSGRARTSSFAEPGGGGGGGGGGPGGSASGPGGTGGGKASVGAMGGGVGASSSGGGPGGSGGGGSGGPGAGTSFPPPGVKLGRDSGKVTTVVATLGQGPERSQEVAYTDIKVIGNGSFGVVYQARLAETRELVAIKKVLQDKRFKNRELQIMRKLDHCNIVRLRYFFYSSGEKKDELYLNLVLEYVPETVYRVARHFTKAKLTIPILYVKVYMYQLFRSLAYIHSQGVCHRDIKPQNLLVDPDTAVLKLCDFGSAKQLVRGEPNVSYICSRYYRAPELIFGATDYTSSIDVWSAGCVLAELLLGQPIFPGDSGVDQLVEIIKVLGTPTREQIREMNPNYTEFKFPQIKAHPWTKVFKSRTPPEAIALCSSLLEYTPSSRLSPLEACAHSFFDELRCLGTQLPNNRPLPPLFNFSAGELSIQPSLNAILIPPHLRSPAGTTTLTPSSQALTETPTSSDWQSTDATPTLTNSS
Outline: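 Z-LYTE FRET: GSK3α preincubated with compound 2 h at RT, then FRET peptide and ATP added (stocks 8 μM and 40 μM) for 1 h, followed by 1 h protease development. Compound stocks 4–0.004 μg/mL; phosphorylation from coumarin/fluorescein emission ratio.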

[3] = dU937, read-out: IC50 Values for Inhibition of Cytokine Release dU937 cells TNFα
[4] = read-out: IC50 Values for Inhibition of Cytokine Release PBMCs IL-2
[5] = dU937, read-out: IC50 Values for Inhibition of Cytokine Release dU937 cells IL-8
[6] = read-out: IC50 Values for Inhibition of Cytokine Release PBMCs IFNγ

| SMILES | pIC50 (PBMCs [1]) | pIC50 (HT29 cells) | pIC50 (d-U937 cells; [3]) | pIC50 (PBMCs [2]; [4]) | pIC50 (Syk) | pIC50 (p38 MAPKα) | pIC50 (c-Src) | pIC50 (d-U937 cells; [5]) | pIC50 (PBMCs [2]; [6]) | pIC50 (GSK3α) |
| --- | --- | --- | --- | --- | --- | --- | --- | --- | --- | --- |
| Cc1ccc(-n2nc(C(C)C)cc2NC(=O)Nc2ccc(Oc3ccnc(Nc4cccc(N=S(C)(C)=O)c4)n3)c3ccccc23)cc1 [Example 14] | 8.62 | 8.10 | – | – | – | – | – | – | – | – |
| COc1cc(Nc2nccc(Oc3ccc(NC(=O)Nc4cc(C(C)C)nn4-c4ccc(C)cc4)c4ccccc34)n2)cc(OCCOCCOCCO)c1 [Example 20, 1-(4-((2-((3-(2-(2-(2-Hydroxyethoxy)ethoxy)ethoxy)-5-methoxyphenyl)amino)pyrimidin-4-yl)oxy)naphthalen-1-yl)-3-(3-isopropyl-1-(P-tolyl)-1H-pyrazol-5-yl)urea] | 8.82 | – | 8.80 | 7.09 | 8.10 | 7.59 | 8.10 | – | – | – |
| COc1cc(Nc2nccc(Oc3ccc(NC(=O)Nc4cc(C(C)C)nn4-c4ccc(C)cc4)c(Cl)c3Cl)n2)cc(OCCN2CCOCC2)c1 [Example 21, 1-(2,3-Dichloro-4-((2-((3-methoxy-5-(2-morpholinoethoxyl)phenyl)amino)pyrimidin-4-yl)-oxy)phenyl)-3-(3-isopropyl-1-(p-tolyl)-1H-pyrazol-5-yl)urea] | 8.80 | – | 8.96 | 7.97 | 7.14 | 6.47 | 7.21 | 8.80 | 8.72 | – |
| COc1cc(Nc2nccc(Oc3ccc(NC(=O)Nc4cc(C(C)(C)C)nn4-c4ccc(C)cc4)c4ccccc34)n2)cc(SCCCN2CCOCC2)c1 [Example 42, 1-(3-(tert-Butyl)-1-(p-tolyl)-1H-pyrazol-5-yl)-3-(4-((2-((3-methoxy-5-((3-morpholinopropyl)-thio)phenyl)amino)pyrimidin-4-yl)oxy)naphthalen-1-yl)urea] | 8.44 | – | – | 7.23 | 7.29 | 6.54 | 7.55 | – | 9.00 | 5.71 |
| COc1cc(Nc2nccc(Oc3ccc(NC(=O)Nc4cc(C(C)(C)C)nn4-c4ccc(C)cc4)c4ccccc34)n2)cc(OCCN2CCOCC2)c1 [Example 45, 1-(3-(tert-Butyl)-1-(P-tolyl)-1H-pyrazol-5-yl)-3-(4-((2-((3-methoxy-5-(2-morpholinoethoxy)-phenyl)amino)pyrimidin-4-yl)oxy)naphthalen-1-yl)urea] | 8.49 | – | – | 7.13 | 7.82 | 6.84 | 7.92 | – | 8.66 | 5.83 |
| COc1cc(Nc2nccc(Oc3ccc(NC(=O)Nc4cc(C(C)(C)C)nn4-c4ccc(C)cc4)c4ccccc34)n2)cc(OCCCN2CCOCC2)c1 [Example 49, 1-(3-(tert-Butyl)-1-(p-tolyl)-1H-pyrazol-5-yl)-3-(4-((2-((3-methoxy-5-(3-morpholino-propoxy)phenyl)amino)pyrimidin-4-yl)oxy)naphthalen-1-yl)urea] | 8.72 | 8.64 | – | 7.26 | 7.70 | 6.76 | 7.64 | – | 8.92 | 5.14 |
| COCCOCCOCCOc1cc(Nc2nccc(Oc3ccc(NC(=O)Nc4cc(C(C)(C)C)nn4-c4ccc(C)cc4)c(Cl)c3Cl)n2)cc(OC)c1 [Example 53, 1-(3-(tert-Butyl)-1-(p-tolyl)-1H-pyrazol-5-yl)-3-(2,3-dichloro-4-((2-((3-methoxy-5-(2-(2-(2-methoxyethoxyl)ethoxy)ethoxy)phenyl)amino)pyrimidin-4-yl)oxy)phenyl)urea] | 8.42 | 8.62 | – | 6.88 | 7.25 | 6.09 | 7.64 | – | 8.68 | < 5.00 |
| COc1cc(Nc2nccc(Oc3ccc(NC(=O)Nc4cc(C(C)(C)C)nn4-c4ccc(C)cc4)c4ccccc34)n2)cc(SCCO)c1 [Example 55, 1-(3-(tert-Butyl)-1-(p-tolyl)-1H-pyrazol-5-yl)-3-(4-((2-((3-((2-hydroxyethyl)thio)-5-methoxyphenyl)amino)pyrimidin-4-yl)oxy)naphthalen-1-yl)urea] | 8.70 | 8.62 | – | 7.43 | 7.38 | 6.70 | – | – | 8.70 | 5.91 |
| COc1cc(Nc2nccc(Oc3ccc(NC(=O)Nc4cc(C(C)(C)C)nn4-c4ccc(OC)nc4)c4ccccc34)n2)cc(S(=O)(=O)C2CC2)c1 [Example 61, 1-(3-(tert-Butyl)-1-(6-methoxypyridin-3-yl)-1H-pyrazol-5-yl)-3-(4-((2-((3-(cyclopropylsulfonyl)-5-methoxyphenyl)amino)pyrimidin-4-yl)oxy)naphthalen-1-yl)urea] | 8.70 | 8.32 | – | 7.37 | – | 6.52 | 7.14 | – | 8.72 | 5.42 |
| COc1cc(Nc2nccc(Oc3ccc(NC(=O)Nc4cc(C(C)(C)C)nn4-c4ccc(C)cc4)c4ccccc34)n2)cc(OCCOCCOCCO)c1 [Example 62, 1-(3-(tert-Butyl)-1-(P-tolyl)-1H-pyrazol-5-yl)-3-(4-((2-((3-(2-(2-(2-hydroxyethoxy)ethoxy)ethoxy)-5-methoxyphenyl)amino)pyrimidin-4-yl)oxy)naphthalen-1-yl)urea] | 8.82 | 8.60 | – | 7.28 | 8.22 | 7.02 | 8.40 | – | 8.68 | – |
| COc1ccc(-n2nc(C(C)(C)C)cc2NC(=O)Nc2ccc(Oc3ccnc(Nc4cc(OC)cc(S(=O)(=O)C5CC5)c4)n3)c3ccccc23)cc1 [Example 70, 1-(3-(tert-Butyl)-1-(4-methoxyphenyl)-1H-pyrazol-5-yl)-3-(4-((2-((3-(cyclopropylsulfonyl)-5-methoxyphenyl)amino)pyrimidin-4-yl)oxy)naphthalen-1-yl)urea] | 9.05 | – | 8.96 | 7.13 | 7.21 | 6.52 | – | 8.72 | 8.85 | 5.47 |
| COc1cc(Nc2nccc(Oc3ccc(NC(=O)Nc4cc(C(C)(C)C)nn4-c4ccc(C)cc4)c(Cl)c3Cl)n2)cc(OCCOCCOCCO)c1 [Example 71, 1-(3-(tert-Butyl)-1-(p-tolyl)-1H-pyrazol-5-yl)-3-(2,3-dichloro-4-((2-((3-(2-(2-(2-hydroxyethoxyl)ethoxy)ethoxy)-5-methoxyphenyl)amino)pyrimidin-4-yl)oxy)phenyl)urea] | 8.74 | – | 9.00 | 7.22 | 7.64 | 6.13 | 7.72 | 8.89 | 8.96 | 5.11 |
